The source made the active and inactive calls. The calls are words filed in the database; no cut-off is given here.
How the values were obtained:
[1] = system: Mus musculus; assay: Antiinflammatory activity in Swiss albino mouse assessed as inhibition of carrageenan-induced paw edema at 200 mg/kg,po pretreated for 1 hr followed by carrageenan administration measured after 6 hrs relative to control; assay type: functional; conditions: time 7 hrs
[2] = system: Mus musculus; assay: Antiinflammatory activity in Swiss albino mouse assessed as inhibition of carrageenan-induced paw edema at 200 mg/kg,po pretreated for 1 hr followed by carrageenan administration measured after 4 hrs relative to control; assay type: functional; conditions: time 5 hrs
[3] = system: Plasmodium falciparum; assay: Antimalarial activity against asynchronous chloroquine-resistant Plasmodium falciparum K1 assessed as parasite growth inhibition infected in erythrocytes incubated for 72 hrs by SYBR green dye based assay; assay type: functional, organism-based; conditions: K1, 72 h
[4] = system: Plasmodium falciparum; assay: Antimalarial activity against asynchronous chloroquine-sensitive Plasmodium falciparum 3D7 assessed as parasite growth inhibition infected in erythrocytes incubated for 72 hrs by SYBR green dye based assay; assay type: functional, organism-based; conditions: 3D7, 72 h
[5] = system: THP-1; assay: Antiinflammatory activity against human THP-1 cells assessed as inhibition of LPS-induced TNFalpha level at 10 uM incubated for 12 to 14 hrs followed by compound replenishment for 1 hr and subsequent LPS treatment for 4 hrs by ELISA assay (reference value: 93.43 %); assay type: functional; set-up: scale not given: the % may be the effect or the level left; conditions: time 17-19 hrs
[6] = system: HEK-293T; assay: Antiinflammatory activity against HEK293T cells assessed as fold increase in TNFalpha-induced NF-kappaB activity at 10 uM incubated for 1 hr followed by TNFalpha treatment for 5 hrs by luciferase based assay (reference value: 17.1); assay type: functional, Homo sapiens
[7] = system: THP-1; assay: Cytotoxicity against LPS-stimulated human THP-1 cells assessed as cell viability at 10 uM incubated for 12 hrs followed by LPS treatment measured after 4 hrs by PI staining based flow cytometry; assay type: functional; conditions: time 16.0 hrs
[8] = system: HEK-293T; assay: Antiinflammatory activity against HEK293T cells assessed as fold increase in TNFalpha-induced NF-kappaB activity at 1 uM incubated for 1 hr followed by TNFalpha treatment for 5 hrs by luciferase based assay (reference value: 17.1); assay type: functional, Homo sapiens; conditions: time 6 hrs

SMILES: CC(C)Cc1ccc(C(C)C(=O)O)cc1 (centres undefined) [IBUPROFEN]
- inhibition in vivo at 200 mg/kg [1]: 72%
- inhibition in vivo at 200 mg/kg [2]: 78%

SMILES: CC(C)c1c(C(=O)Nc2ccccc2)c(-c2ccccc2)c(-c2ccc(F)cc2)n1CC[C@@H](O)C[C@@H](O)CC(=O)O [ATORVASTATIN]
- IC50 [3]: > 5000 nM
- IC50 [4]: 4600 nM

SMILES: COc1ccc(-c2c(-c3ccccc3)c(C(=O)Nc3ccccc3)c(C)n2CCC2=CC(=O)OC2O)cc1 (centres undefined)
- IC50 [4]: > 5000 nM

SMILES: Cc1c(C(=O)Nc2ccccc2)c(-c2ccc(F)cc2)c(-c2ccc(F)cc2)n1CC1=CC(=O)OC1O (centres undefined)
- Activity [5]: 32.69%
- fold change (FC) [6]: 9
- Activity [7]: Active
- IC50 [4]: 4620 nM

SMILES: Cc1ccc(-c2c(-c3ccccc3)c(C(=O)Nc3ccccc3)c(C)n2CC2=CC(=O)OC2O)cc1 (centres undefined)
- Activity [5]: 84%
- fold change (FC) [6]: 12.5
- Activity [7]: Active
- IC50 [4]: 1310 nM

SMILES: Cc1ccc(-c2c(C(=O)Nc3ccccc3)c(C)n(CCC3=CC(=O)OC3O)c2-c2ccc(C)cc2)cc1 (centres undefined)
- IC50 [4]: > 5000 nM

SMILES: Cc1c(C(=O)Nc2ccccc2)c(-c2ccc(Cl)cc2)c(-c2ccc(Cl)cc2)n1CC1=CC(=O)OC1O (centres undefined)
- Activity [5]: 91.04%
- fold change (FC) [6]: 8.5
- Activity [7]: Active
- IC50 [4]: 1870 nM

SMILES: Cc1c(C(=O)Nc2ccccc2)c(-c2ccccc2)c(-c2ccc(F)cc2)n1CC1=CC(=O)OC1O (centres undefined)
- Activity [5]: 83.11%
- fold change (FC) [6]: 10.3
- Activity [7]: Active
- IC50 [4]: 2660 nM

SMILES: S=C(S)N1CCCC1 [PYRROLIDINE DITHIOCARBAMATE]
- fold change (FC) [8]: 2.3

SMILES: CC1=CCC[C@@H]2[C@@](C)(CCC3=CC(=O)O[C@@H]3O)[C@H](C)CC[C@@]12C
- IC50 [3]: 2880 nM
- IC50 [4]: 1270 nM

SMILES: Cc1c(C(=O)Nc2ccccc2)c(-c2ccccc2)c(-c2ccccc2)n1CCC1=CC(=O)OC1O (centres undefined)
- Activity [5]: 13.5%
- fold change (FC) [6]: 10.3
- Activity [7]: Active
- IC50 [4]: 2830 nM

SMILES: CCc1ccc(-c2c(-c3ccccc3)c(C(=O)Nc3ccccc3)c(C)n2CC2=CC(=O)OC2O)cc1 (centres undefined)
- Activity [5]: 89.97%
- fold change (FC) [6]: 7
- Activity [7]: Active
- IC50 [4]: 1210 nM

SMILES: Cc1c(C(=O)Nc2ccccc2)c(-c2ccccc2)c(-c2ccc(Cl)cc2)n1CCC1=CC(=O)OC1O (centres undefined)
- Activity [5]: 35.92%
- fold change (FC) [6]: 10.4
- Activity [7]: Active
- IC50 [4]: 2190 nM

SMILES: O=C1OC(O)C(Cl)=C1Cl (centres undefined) [MUCOCHLORIC ACID]
- IC50 [3]: > 5000 nM
- IC50 [4]: 4000 nM

From ChEMBL document CHEMBL5360578, “Design, synthesis and evaluation of novel pyrrole-hydroxybutenolide hybrids as promising antiplasmodial and anti-inflammatory agents” (Eur J Med Chem, 2023)
